The results in this text go back to patent US11559538B2, “Substituted 1,2-oxaborolan-2-ols as PDE4 inhibitors” (Pfizer Inc., priority 2018, dated 2023).

Like-named read-outs stand apart in the source and are kept apart here.

One experiment deals with IL-4. Kind of experiment: Cytokine assay: IL-4 release from PHA-L stimulated human PBMCs. It is filed as cell-based. The conditions noted are these: read-out: IL4 IC50. The method in brief:
(§1)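 IC50 values came from four-parameter logistic fits of supernatant cytokine, which was quantified by HTRF. Mitogen stimulation used PHA-L at a final 3.5 μg/mL on about 250,000 thawed human PBMCs per well, in serum-containing RPMI medium with 0.25% DMSO, for 48 h.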

Experiment [1] deals with PDE4B (aa 152-484, Uniprot ID Q07343) (Homo sapiens (Human), UniProt Q07343). As to the kind of experiment: PDE4 SPA assay (scintillation proximity assay). It is filed as biochemical. The note with it: read-out: PDE4B2 IC50. The method in brief:
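PDE4B (aa 152-484, ~81.6 pM) preincubated ~10 min with compound, then 1 μM ³H/unlabeled cAMP added in Tris pH 7.5, 1.3 mM MgCl2, 0.004% Brij 35, ~2% DMSO; 30 min at RT. Product captured on SPA beads and counted; IC50 by four-parameter logistic fit.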

In a further experiment the test system is IFNγ. Kind of experiment: Cytokine assay: IFNγ release from PHA-L stimulated human PBMCs. Type of experiment: cell-based. The method in brief: as §1
A further experiment relates to IL-13. Kind of experiment: Cytokine assay: IL-13 release from PHA-L stimulated human PBMCs. Type of experiment: cell-based. The note with it: read-out: IL13 IC50. An outline of the steps: as §1

PDE4B (aa 152-484, Uniprot ID Q07343), sequence (Q07343 324-656): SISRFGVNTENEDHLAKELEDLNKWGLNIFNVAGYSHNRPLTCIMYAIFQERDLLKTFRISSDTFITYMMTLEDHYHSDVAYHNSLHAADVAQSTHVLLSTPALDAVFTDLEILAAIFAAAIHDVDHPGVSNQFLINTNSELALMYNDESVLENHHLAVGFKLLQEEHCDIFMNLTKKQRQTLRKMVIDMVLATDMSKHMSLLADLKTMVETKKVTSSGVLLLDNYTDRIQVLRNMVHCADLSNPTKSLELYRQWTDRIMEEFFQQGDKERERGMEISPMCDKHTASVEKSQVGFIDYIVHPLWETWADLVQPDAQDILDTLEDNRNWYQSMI

Take `CCCOc1cc(-c2ccc(F)c(C3COB(O)C3)n2)ccc1OC` (single isomer, unassigned; enantiomer 1) [Example 230, 4-(3-fluoro-6-(4-methoxy-3-propoxyphenyl)pyridin-2-yl)-1,2-oxaborolan-2-ol, enantiomer 1]: the IC50 turned out to be 0.141 µM in the experiment with IL-4 (Homo sapiens, PBMC); 0.0171 µM in experiment [1]; 0.0265 µM in the experiment on IFNγ (Homo sapiens, PBMC); 2.78 µM with IL-13 (Homo sapiens, PBMC).
Regarding `CCCOc1nc(-c2cc(C3COB(O)C3)cnc2C)ccc1OC` (single isomer, unassigned; enantiomer 1) [Example 231, (−) 4-(5-methoxy-2′-methyl-6-propoxy-[2,3′-bipyridin]-5′-yl)-1,2-oxaborolan-2-ol, enantiomer 1], the IC50 is 0.00125 µM in the experiment on IL-4 (Homo sapiens, PBMC); 0.00198 µM in experiment [1]; 0.00172 µM in the experiment on IFNγ (Homo sapiens, PBMC); 2.95 µM with IL-13 (Homo sapiens, PBMC).
Turning to `CCCOc1cc(-c2nc(CO)cc(C3COB(O)C3)n2)c(F)cc1OC` (single isomer, unassigned; enantiomer 2) [Example 154, (−) 4-(2-(2-fluoro-4-methoxy-5-propoxyphenyl)-6-(hydroxymethyl)pyrimidin-4-yl)-1,2-oxaborolan-2-ol, enantiomer 2], the IC50 worked out at 0.0314 µM in the experiment on IL-4 (Homo sapiens, PBMC); 0.0141 µM in experiment [1]; 0.0152 µM with IFNγ (Homo sapiens, PBMC); 0.893 µM in the experiment with IL-13 (Homo sapiens, PBMC).
Turning to `CCOc1cc(-c2cncc(C3COB(O)C3)c2)cc(Cl)c1OC` (single isomer, unassigned; enantiomer 2) [Example 173, 4-(5-(3-chloro-5-ethoxy-4-methoxyphenyl)pyridin-3-yl)-1,2-oxaborolan-2-ol, enantiomer 2], the IC50 in the experiment on IL-4 worked out at 0.0771 µM; in experiment [1], 0.01 µM; in the experiment with IFNγ, 0.0302 µM; with IL-13, 1.13 µM.
Turning to `COc1cc(-c2ccc(OC)c(OC3CCCC3)c2)nc(C2COB(O)C2)n1` (single isomer, unassigned; enantiomer 2) [Example 176, 4-(4-(3-(cyclopentyloxy)-4-methoxyphenyl)-6-methoxypyrimidin-2-yl)-1,2-oxaborolan-2-ol, enantiomer 2], the IC50 with IL-4 (Homo sapiens, PBMC) came to 0.00651 µM; in experiment [1], 0.00551 µM; with IFNγ (Homo sapiens, PBMC), 0.00298 µM; with IL-13 (Homo sapiens, PBMC), 1.14 µM.
On to `COc1ccc(-c2nc(C3COB(O)C3)ns2)cc1OC1CC1` (single isomer, unassigned; enantiomer 2) [Example 181, (−) 4-(5-(3-cyclopropoxy-4-methoxyphenyl)-1,2,4-thiadiazol-3-yl)-1,2-oxaborolan-2-ol, enantiomer 2], for which the IC50 in the experiment on IL-4 (Homo sapiens, PBMC) worked out at 0.00223 µM; in experiment [1] it was 0.00068 µM; in the experiment with IFNγ (Homo sapiens, PBMC), 0.00317 µM; in the experiment on IL-13 (Homo sapiens, PBMC) it was 1.3 µM.
The matching figures for `CCOc1cc(-c2nc(OC)cc(C3COB(O)C3)n2)ccc1OC` (single isomer, unassigned; enantiomer 2) [Example 186, (−) 4-(2-(3-ethoxy-4-methoxyphenyl)-6-methoxypyrimidin-4-yl)-1,2-oxaborolan-2-ol, enantiomer 2]: 0.0314 µM, 0.00443 µM, 0.00513 µM and 1.4 µM.
For the molecule `CCOc1cc(-c2cncc(C3COB(O)C3)c2C)ccc1OC` (single isomer, unassigned; enantiomer 2) [Example 189, 4-(5-(3-ethoxy-4-methoxyphenyl)-4-methylpyridin-3-yl)-1,2-oxaborolan-2-ol, enantiomer 2], the IC50 with IL-4 is 0.00772 µM; in experiment [1], 0.00261 µM; in the experiment on IFNγ (Homo sapiens, PBMC), 0.00146 µM; with IL-13, 1.46 µM.
Turning to `COc1ccc(-c2cncc(C3COB(O)C3)c2)cc1OC(C)C` (single isomer, unassigned; enantiomer 2) [Example 190, 4-(5-(3-isopropoxy-4-methoxyphenyl)pyridin-3-yl)-1,2-oxaborolan-2-ol, enantiomer 2], the IC50 in the experiment with IL-4 stood at 0.0403 µM; in experiment [1], 0.00143 µM; in the experiment with IFNγ it was 0.00501 µM; with IL-13 it was 1.48 µM.
As for `CCOc1c(OC)ccc(-c2cccc(C3COB(O)C3)c2)c1C#N` (single isomer, unassigned; enantiomer 2) [Example 192, 3-ethoxy-3′-(2-hydroxy-1,2-oxaborolan-4-yl)-4-methoxy-[1,1′-biphenyl]-2-carbonitrile, enantiomer 2], the half-maximal inhibitory concentration (IC50) worked out at 0.0146 µM in the experiment with IL-4 (Homo sapiens, PBMC); 0.00215 µM in experiment [1]; 0.00543 µM in the experiment on IFNγ (Homo sapiens, PBMC); 1.5 µM with IL-13 (Homo sapiens, PBMC).
In the case of `CCCOc1nc(-c2cncc(C3COB(O)C3)c2)c(F)cc1OC` (single isomer, unassigned; enantiomer 2) [Example 208, (+) 4-(3-fluoro-5-methoxy-6-propoxy-[2,3′-bipyridin]-5′-yl)-1,2-oxaborolan-2-ol, enantiomer 2], the IC50 worked out at 0.00406 µM in the experiment on IL-4, 0.00022 µM in experiment [1], 0.00198 µM with IFNγ and 1.8 µM in the experiment on IL-13.
Turning to `COc1ccc(-c2cc(C3COB(O)C3)ccn2)cc1OC1CCCC1` (single isomer, unassigned; enantiomer 2) [Example 211, 4-(2-(3-(cyclopentyloxy)-4-methoxyphenyl)pyridin-4-yl)-1,2-oxaborolan-2-ol, enantiomer 2], the IC50 in the experiment with IL-4 (Homo sapiens, PBMC) amounted to 0.0278 µM; in experiment [1] it was 0.00295 µM; in the experiment on IFNγ (Homo sapiens, PBMC) it was 0.00183 µM; in the experiment with IL-13 (Homo sapiens, PBMC) it was 1.84 µM.
In the case of `CCOc1cc(-c2cncc(C3COB(O)C3)c2)cc(F)c1OC` (single isomer, unassigned; enantiomer 2) [Example 214, 4-(5-(3-ethoxy-5-fluoro-4-methoxyphenyl)pyridin-3-yl)-1,2-oxaborolan-2-ol, enantiomer 2], the IC50 worked out at 0.0207 µM with IL-4, 0.00492 µM in experiment [1], 0.0137 µM in the experiment on IFNγ and 2 µM in the experiment with IL-13.
Consider `COc1ccc(-c2cncc(C3COB(O)C3)c2)cc1OC` (single isomer, unassigned; enantiomer 2) [Example 221, 4-(5-(3,4-dimethoxyphenyl)pyridin-3-yl)-1,2-oxaborolan-2-ol, enantiomer 2], for which the IC50 amounted to 0.0474 µM in the experiment on IL-4, 0.00221 µM in experiment [1], 0.00935 µM in the experiment with IFNγ and 2.43 µM in the experiment on IL-13.
As to `CCCOc1cc(-c2nc(OC)cc(C3COB(O)C3)n2)ccc1OC` (single isomer, unassigned; enantiomer 2) [Example 225, (−) 4-(6-methoxy-2-(4-methoxy-3-propoxphenyl)pyrimidin-4-yl)-1,2-oxaborolan-2-ol, enantiomer 2], the IC50 was 0.0212 µM in the experiment with IL-4 (Homo sapiens, PBMC); 0.00379 µM in experiment [1]; 0.00436 µM with IFNγ (Homo sapiens, PBMC); 2.38 µM in the experiment on IL-13 (Homo sapiens, PBMC).
With `COc1ccc(-c2cncc(C3COB(O)C3)c2)cc1OCCO` (single isomer, unassigned; enantiomer 2) [Example 228, (+) 4-(5-(3-(2-hydroxyethoxy)-4-methoxyphenyl)pyridin-3-yl)-1,2-oxaborolan-2-ol, enantiomer 2], the IC50 with IL-4 was 0.00778 µM; in experiment [1] it was 0.00632 µM; in the experiment with IFNγ it was 0.0142 µM; with IL-13 it was 2.57 µM.
Take `CCOc1cc(-c2cncc([C@H]3COB(O)C3)c2)ccc1OC` [Example 2, (S)-4-(5-(3-ethoxy-4-methoxyphenyl)pyridin-3-yl)-1,2-oxaborolan-2-ol]: the IC50 in the experiment with IL-4 (Homo sapiens, PBMC) worked out at 0.21 µM; in experiment [1] it was 0.00067 µM; in the experiment on IFNγ (Homo sapiens, PBMC), 0.00273 µM; with IL-13 (Homo sapiens, PBMC), 1.35 µM.
The matching figures for `CCOc1cc(-c2cncc([C@@H]3COB(O)C3)c2)ccc1OC` [Example 3, (R)-4-(5-(3-ethoxy-4-methoxyphenyl)pyridin-3-yl)-1,2-oxaborolan-2-ol]: 0.00354 µM, 0.00114 µM, 0.0007 µM and 0.165 µM.
In the same order, the values of `CCCOc1cc(-c2cncc([C@H]3COB(O)C3)c2)ccc1OC` [Example 5, (S)-4-(5-(4-methoxy-3-propoxyphenyl)pyridin-3-yl)-1,2-oxaborolan-2-ol] are 0.0363 µM, 0.00093 µM, 0.00404 µM and 2.39 µM.
The matching figures for `CCCOc1cc(-c2cncc(C3=CB(O)OC3)c2)ccc1OC` [Example 25, 4-(5-(4-methoxy-3-propoxyphenyl)pyridin-3-yl)-1,2-oxaborol-2(5H)-ol]: 0.0678 µM, 0.0024 µM, 0.00917 µM and 2.31 µM.
For `CCCOc1cc(-c2cccc(C3CCOB(O)C3)n2)ccc1OC` (centres unmarked) [Example 26, 4-(6-(4-methoxy-3-propoxyphenyl)pyridin-2-yl)-1,2-oxaborinan-2-ol], the IC50 amounted to 1.67 µM in the experiment on IL-4 (Homo sapiens, PBMC); 0.399 µM in experiment [1]; 3.3 µM in the experiment with IFNγ (Homo sapiens, PBMC); 10 µM in the experiment on IL-13 (Homo sapiens, PBMC).
`CCCOc1cc(-c2cccc(C3COB(O)C3C)n2)ccc1OC` (centres unmarked) [Example 27, 4-(6-(4-methoxy-3-propoxyphenyl)pyridin-2-yl)-3-methyl-1,2-oxaborolan-2-ol]: the IC50 in the experiment on IL-4 (Homo sapiens, PBMC) turned out to be 3.79 µM; in experiment [1], 0.0734 µM; in the experiment with IFNγ (Homo sapiens, PBMC), 0.209 µM; with IL-13 (Homo sapiens, PBMC) it was 10 µM.
The matching figures for `CCCOc1cc(-c2cccc(C3=C(C)B(O)OC3)n2)ccc1OC` [Example 28, 4-(6-(4-methoxy-3-propoxyphenyl)pyridin-2-yl)-3-methyl-1,2-oxaborol-2(5H)-ol]: 1.04 µM, 0.0109 µM, 0.201 µM and 8.01 µM.
